Results on 3 compounds are retold here after paper PMC9954107, “In Vitro and Predictive Computational Toxicology Methods for the Neurotoxic Pesticide Amitraz and Its Metabolites” (Brain Sciences, 2023).

Data set [1] has as its system HepG2 cells. The data set can be described thus: MTT cytotoxicity assay. Type of data set: cell-based. Conditions: Homo sapiens, read-out: IC50 (µM) ± SEM. The protocol: Human hepatocarcinoma (HepG2) (ATCC: HB-8065) cells were cultured in DMEM medium supplemented with 10% NBCS, 100 U/mL penicillin, and […] streptomycin. The incubation conditions were pH 7.4, 5% CO2 at 37 °C, and 95% air atmosphere at constant humidity. The medium was changed every 5 days. The final pesticide concentrations tested were achieved by adding each pesticide solution to the culture medium with a final MeOH or DMSO concentration ≤ 1% (v/v). Appropriate controls containing the same amounts of solvents were included in each experiment. Absence of mycoplasma was checked routinely using the MycoAlert^TM PLUS Mycoplasma Kit (Lonza, Rockland, ME, USA).
Cytotoxic effects were determined in HepG2 cells by the MTT and total protein content (PC) assays. They have been extensively used in in vitro toxicological studies for measuring cell proliferation and survival. The MTT assay determines the viability of cells by the reduction of yellow soluble tetrazolium salt (MTT), only in the metabolically active cells, via a mitochondrial-dependent reaction to an insoluble purple formazan crystal. The MTT viability assay was performed according to Ruiz et al. (2006). To begin, 2 × 10^4 cell/well were plated in 96-well tissue culture plates. After cells reached 80% confluence, the culture medium was replaced with fresh medium containing serial dilutions of each pesticide (amitraz from […], 2,4-DMF from 93.75 to 1500 µM, and 2,4-DMA from 93.75 to 1500 µM). The pesticides were exposed at 24, 48, and 72 h. During the exposure time, neither the medium nor the pesticides was replenished. After the exposure time, the medium was removed and 200 μL of fresh medium was added to each well. Then we added 50 μL/well of MTT and the plates were returned to the incubator in the darkness. After 3 h of incubation, the MTT solution was removed and 200 μL of DMSO was added, followed by 25 μL Sorensen’s glycine buffer. Plates were gently shaken for 5 min to achieve the complete dissolution. The absorbance was measured at 540 nm using an automatic ELISA plate reader (MultiSkanEX, Thermo Scientific, Waltham, MA, USA).
(§1) For MTT and PC assays, cell viability was expressed as a percentage relative to the control solvent (≤1% MeOH or DMSO). Three independent experiments were conducted for each exposure time and at least in quadruplicate per concentration. The mean inhibition concentration (IC50) values were calculated using SigmaPlot version 11 (Systat Software Inc., GmbH, Germany).
Background: Formazan colour is commonly taken as a measure of viable cells.

In data set [2] the test system is HepG2 cells. The data set can be described thus: Total protein content (PC) cytotoxicity assay. Format: cell-based, human. Conditions: for IC50: Homo sapiens, read-out: IC50 (µM) ± SEM; for decrease in cell viability: 72 h.
From the text: The medium was changed every 5 days. The final pesticide concentrations tested were achieved by adding each pesticide solution to the culture medium with a final MeOH or DMSO concentration ≤ 1% (v/v). Appropriate controls containing the same amounts of solvents were included in each experiment. Absence of mycoplasma was checked routinely using the MycoAlert^TM PLUS Mycoplasma Kit (Lonza, Rockland, ME, USA).
The PC method is based on the increase of absorbance of Coomassie Brilliant Blue dye when binding to proteins. The assay was performed in the same 96-well plates where the MTT test was carried out. First, the plates were washed with PBS and each well received 200 μL of NaOH 0.1 N to dissolve the proteins. […] The plates remained for 30 min at room temperature and the absorbance was measured at 620 nm in an automatic ELISA plate reader (MultiSkanEX, Thermo Scientific, MA, USA).
as §1

Data set [3] relates to primary hippocampal cells. Conditions: MTT, 24 h, cited from earlier work.
For data set [4], the system named is human lymphoblastoid (WIL2NS) cell line. Also noted: method as in PMID 16125362. Conditions: from 0.119 to 119 µM, 24, 48, and 72 h; lowest concentration 0.119 µM; cited from earlier work.
Setting [5] is: PC, HepG2, 24 h, mean ± SEM (n = 3).
The mark [6] stands for this setting: PC, HepG2, 48 h, mean ± SEM (n = 3).
The mark [7] stands for this setting: PC, HepG2, 72 h, mean ± SEM (n = 3).

In general, IC50 refers to the concentration at which inhibition is half-maximal. Regarding `Cc1ccc(N)c(C)c1` [2,4-DMA, 2,4-dimethylaniline], the 50% inhibitory concentration (IC50) in the data set with HepG2 cells [1] (HepG2, 24 h) is more than 1500 µM; in the data set on HepG2 cells [1] (HepG2, 48 h), more than 1500 µM; with HepG2 cells [1] (HepG2, 72 h), more than 1500 µM; with HepG2 cells [2] (setting [5]), more than 1500 µM; in the data set with HepG2 cells [2] (setting [6]), more than 1500 µM; with HepG2 cells [2] (setting [7]), more than 1500 µM. The “cell viability decreased to” value in the data set on HepG2 cells [2] (PC, HepG2, 1500 µM, 24 h) was 53%.

`Cc1ccc(NC=O)c(C)c1` [2,4-DMF, N-(2,4-dimethylphenyl) formamide]: the IC50 in the data set on HepG2 cells [1] (HepG2, 24 h) is more than 1500 µM; in the data set with HepG2 cells [1] (HepG2, 48 h), more than 1500 µM; in the data set on HepG2 cells [1] (HepG2, 72 h) it was more than 1500 µM; with HepG2 cells [2] (HepG2, 24 h), more than 1500 µM; in the data set on HepG2 cells [2] (HepG2, 48 h), more than 1500 µM; in the data set with HepG2 cells [2] (HepG2, 72 h), more than 1500 µM. Also, the “decrease in cell viability” value in the data set on HepG2 cells [2] (PC, HepG2, 1250 µM) was determined as 27%; with HepG2 cells [2] (PC, HepG2, 1500 µM), 32%.

As for `Cc1ccc(/N=C/N(C)/C=N/c2ccc(C)cc2C)c(C)c1` [Amitraz, N,N’-[(methylimino)dimethylidyne]di-2,4-xylidine], the IC50 worked out at 196 ± 10.1 µM in the data set with HepG2 cells [1] (HepG2, 24 h); 176 ± 5 µM with HepG2 cells [1] (HepG2, 48 h); 157 ± 10.1 µM with HepG2 cells [1] (HepG2, 72 h); 260 ± 13.3 µM in the data set with HepG2 cells [2] (setting [5]); 213 ± 37.5 µM in the data set on HepG2 cells [2] (setting [6]); 175 ± 2.9 µM in the data set with HepG2 cells [2] (setting [7]). For the same compound, in data set [3] (100 µM), the metabolic activity result was “decrease in metabolic activity”. In addition, the “cytotoxic effect (cell viability)” value in data set [3] (from 60 to 120 µM, effect up to 100 µM) is listed as “decreased the cell viability in a concentration-dependent manner”. Besides, in the data set on HepG2 cells [2] (PC, HepG2, from 187.5 μM, three times of exposure), the “reduction of cell viability” value is reported as 24–100%. In addition, the “cytotoxicity (cell viability)” value in data set [4] is given as “significant decrease in cell viability for all concentrations tested, except for the lowest concentration assayed”.
